Entries after “also recorded” stand apart in the source; their conditions may differ. Read-outs that look alike come from different tables or passages of the source.
Key:
[1] = Plasma concentrations in C57BL/6 mice (LC-MS/MS); type: in vivo; conditions: for Drug plasma concentrations: all dose levels
Protocol: (§1) C57BL/6 mice were dosed with a compound of Formula I in a gel composition by subcutaneous injection twice daily for 2 days. Plasma concentrations of a compound of Formula I were measured by LC-MS/MS at select time points following doses 3 and 4. Following drug administration, plasma levels were elevated in a dose dependent manner reaching 15 ug/ml 3 hours after dose 3 at 45 mg/kg/dose. […] Maximal drug plasma levels reached greater than 30 ug/ml 2 hours following dose 4 at 45 mg/kg/dose and dropped to 13 ug/ml by 4 hours post dosing. […] Prothrombin (PT) times were measured at 0 (predose), 2, 4, and 18 hours after the 4th dose administration.

B16F10 melanoma cells = test: Lung colonization by B16F10 melanoma cells in mice; type: in vivo; conditions: 1.5 h before and 4.5 h and 24 h after tumor cell inoculation, compared to control vehicle
Protocol: In this experiment, the compound of Formula I was administered subcutaneously 1.5 h before tumor cell inoculation, and then 4.5 h and 24 h after tumor cell inoculation. In the absence of the compound of Formula I (i.e., the vehicle alone), a substantial number of colonies formed in the majority of the inoculated mice. […] As a result, in some embodiments, the compound of Formula I inhibit the metastasis of tumor cells.
The compound of Formula I (3×50 mg/kg; 3×100 mg/kg) and a control vehicle were administered subcutaneously 1.5 hours before tumor cell inoculation and then at 4.5 hours and 24 hours after tumor cell inoculation.

Prothrombin (PT) time = test: Prothrombin time changes in C57BL/6 mice; type: in vivo; conditions: 2 hours following the 4th dose, 45 mg/kg/dose, gel SC twice daily
Protocol: as §1

[2] = test system: FVIIa-induced IL-8 response in MDA-MB-231 human breast cancer cells; test: FVIIa-induced IL-8 response in MDA-MB-231 human breast cancer cells; type: cell-based; conditions: 1 μM added to the medium; MDA-MB-231 cells incubated with FVIIa
Source text: Secretion of the chemokine IL-8 increased to over 3-fold of baseline.

[3] = Pharmacokinetics after intravenous and subcutaneous administration in cynomolgus monkeys; type: in vivo; conditions: for AUC(0-t): read-out: AUC 0-48
Protocol: A study was performed in cynomolgus monkeys with the compound of Formula I to provide information on its pharmacokinetics following intravenous and subcutaneous administration and to determine its subcutaneous bioavailability. The test compound was administered intravenously in a solution (1.76 mg/mL) composition and subcutaneously in a gel composition (107 mg/mL).

[4] = Animal PK studies, subcutaneous, rat; conditions: in vivo, sc, subcutaneous administration, read-out: terminal half-life (t1/2) (converted)
[5] = Animal PK studies, subcutaneous, monkey; conditions: in vivo, sc, subcutaneous administration, read-out: terminal half-life (t1/2)
[6] = Toxicology study, 28 or 29 days subcutaneous, cynomolgus monkeys; type: in vivo; conditions: for NOAEL: sc
Protocol: Cynomolgus monkeys were administered a gel formulation of a compound of Formula I twice daily by subcutaneous injection for 28 or 29 consecutive days at a total daily dosage of 0 (vehicle), 3, 12, or 36 mg/kg/day (HED=0.96, 3.84, and 11.5 mg/kg/day, respectively).

[7] = Animal PK studies, subcutaneous, baboon; type: in vivo; conditions: plasma, sc
[8] = Animal PK studies, subcutaneous bioavailability across species; type: in vivo; conditions: rat, dog, monkey, baboon, plasma, sc; administered subcutaneously in a solution; rats, dogs, monkeys, and baboons
[9] = Animal PK studies, subcutaneous, dog; type: in vivo; conditions: plasma, sc
Protocol: In dogs, the time to reach maximum plasma concentrations (Tmax) following subcutaneous injection of a compound of Formula I was 0.5 hours.

[10] = test system: Lewis lung carcinoma tumor; test: Lewis lung carcinoma tumor growth in C57BL mice; type: in vivo; conditions: for tumor volume compared to the control: gel formulation SC, 6, 9, 13, and 15 days after start of dosing
Protocol: In this example, the compound of Formula I was administered subcutaneously starting 4 days after tumor cell implantation in the mice (the two different dosing schedules are described in FIG. 2). […] As a result, the compound of Formula I inhibits the growth of tumor cells.
In a follow-up tumor suppression study, the compound of Formula I reduced Lewis lung carcinoma tumor growth in C57BL mice by approximately 50% when given twice daily at subcutaneous doses 22.5, 45, and 90 mg/kg (FIG. 3).
The compound of Formula I was administered in a gel formulation subcutaneously starting 4 days after tumor cell implantation. Tumor volume in the control experiment continued to increase from about 100 mm^3 at 6 days to above 400 mm^3 after 13 days and above 500 mm^3 after 15 days after start of dosing.

[11] = cynomolgus monkey, plasma, sc, Subcutaneous Gel, 10.7 mg/kg, n = 3
[12] = cynomolgus monkey, plasma, Intravenous Solution, 1.76 mg/kg, n = 4
[13] = subcutaneous administration, read-out: terminal half-life (t1/2) (converted)

## N=C(N)c1ccc2nc(-c3cc(CC(=O)N[C@@H](CC(=O)O)C(=O)O)cc(-c4cc(S(N)(=O)=O)ccc4O)c3O)[nH]c2c1 [compound of Formula I]
[1]; 6 hours after dose 3
  Drug plasma concentrations: had dropped significantly
[1]; 18 hours following dose 4
  Drug plasma concentrations: at or near baseline
[1]; gel SC twice daily, 2 hours following dose 4 at 22.5 mg/kg/dose
  Drug plasma concentration: 11000 ng/mL
[1]; gel SC twice daily, 2 hours following dose 4 at 45 mg/kg/dose
  Maximal drug plasma level: greater than 30 ug/ml
[1]; gel SC twice daily, 3 hours after dose 3 at 45 mg/kg/dose
  plasma level: 15000 ng/mL
[1]; gel SC twice daily, 4 hours following dose 4 at 22.5 mg/kg/dose
  Drug plasma concentration: stayed elevated
[1]; gel SC twice daily, 4 hours post dose 4 at 45 mg/kg/dose
  drug plasma level: 13000 ng/mL
B16F10 melanoma cells; 3×50 mg/kg SC, 50 mg/kg
  Bl6F10 colonies formed in the lung: substantially fewer colonies were formed
B16F10 melanoma cells; 3×100 mg/kg SC, 100 mg/kg
  Bl6F10 colonies formed in the lung: substantially fewer colonies; also recorded: the number of colonies further dropped
Prothrombin (PT) time
  maximal change in PT time: 1.8 times baseline
[2]
  FVIIa-induced IL-8 response: completely abrogated
[3]; 10.7 mg/kg subcutaneous vs 1.76 mg/kg intravenous
  subcutaneous Cmax as percent of the Cmax observed following intravenous dose: 74%
[3]; cynomolgus monkey, plasma, iv, 1.76 mg/kg, Intravenous Solution, 1.76 mg/kg, n = 4, read-out: t1/2 α (converted)
  half-life: 0.162 h
[3]; cynomolgus monkey, plasma, iv, 1.76 mg/kg, Intravenous Solution, 1.76 mg/kg, n = 4, read-out: t1/2 β (converted)
  half-life: 2.19 h
[3]; cynomolgus monkey, plasma, iv, 1.76 mg/kg, Intravenous Solution, 1.76 mg/kg, n = 4, read-out: t1/2 γ (converted)
  half-life: 7.07 h
[3]; cynomolgus monkey, plasma, sc, 10.7 mg/kg, Subcutaneous Gel, 10.7 mg/kg, n = 3, read-out: Terminal t1/2 (converted)
  half-life: 7.43 h
[3]; cynomolgus monkey, plasma, sc, Subcutaneous Gel (107 mg/mL), 10.7 mg/kg, n = 3
  Cmax: 11600 ng/mL
[3]; [11]
  AUC(0-inf): 172 µg·h/mL
  CL/F: 1.07 mL/min/kg
  Tmax: 3.33 h
  AUC(0-t): 171 µg·h/mL
[3]; cynomolgus monkey, plasma, sc, Subcutaneous Gel, single 10.7 mg/kg dose, n = 3, estimated, read-out: Bioavailabilty (subcutaneous)
  bioavailability: 138 ± 33%
[3]; [12]
  Cmax: 15700 ng/mL
  MRT: 5.15 h
  clearance: 1.4 mL/min/kg
  AUC(0-t): 21.2 µg·h/mL
[3]; cynomolgus monkey, plasma, Intravenous Solution, 1.76 mg/kg, n = 4, read-out: Vss
  Vd: 0.43 L/kg
[4]
  half-life: 2.67 h
[5]
  half-life: 5.4 to 8.14 h
[6]; cynomolgus monkey, in vivo
  sternum-bone marrow and spleen findings: shifts indicative of increased erythropoiesis
  NOAEL: 3 mg/kg/day
[6]; cynomolgus monkey, in vivo, 36 mg/kg/day
  kidney medulla finding: minimal to mild widening of the interstitium along the medullary rays
[6]; cynomolgus monkey, in vivo, subcutaneous administration for 28 or 29 consecutive days, read-out: NOAEL as HED
  NOAEL: 0.96 mg/kg/day
[6]; one female, 36 mg/kg/day group, abnormally high aPTT prior to dosing
  unscheduled euthanasia: euthanized after 3 days of dosing due to severe external hemorrhage
[7]; [13]
  half-life: 7.21 h
[7]; subcutaneous injection, baboons, read-out: time to reach maximum plasma concentrations (Tmax)
  Tmax: 2.75 h
[8]
  bioavailability: 95 to 124%
[9]; [13]
  half-life: 5.68 h
[9]; subcutaneous injection, dogs, read-out: time to reach maximum plasma concentrations (Tmax)
  Tmax: 0.5 h
[10]; SC starting 4 days after tumor cell implantation, depending on the dosing schedule, p<0.01
  reduction in tumor volume: ≥ 50%
[10]; follow-up study, twice daily subcutaneous doses 22.5, 45, and 90 mg/kg
  reduction of Lewis lung carcinoma tumor growth: approximately 50%
[10]; 100 mg/kg bid x4d followed by 60 mg/kg bid, P<0.01
  tumor volume compared to the control: a reduction in the tumor volume
[10]; 150 mg/kg bid x4d followed by 90 mg/kg bid, P≦0.01
  tumor volume compared to the control: a reduction in the tumor volume
